Assay results from patent US20240139125A1 (INDUSTRIAL COOPERATION FOUNDATION JEONBUK NATIONAL …, priority 2020, published 2024).
Entries after “also recorded” stand apart in the source; their conditions may differ.

Columns and labels:
[1] = system: AKT serine phosphorylation (S473); assay: AKT phosphorylation by Western blotting; type: cell-based
Procedure: This is AKT signaling key to cancer cell growth, and BIA and its analogues tend to inhibit it. Only representative experimental results were presented. Data were expressed as mean±SD. After one-way ANOVA, Tukey's post hoc test is conducted.
After cell recovery, cell lytic buffer (10 mM Tris-Cl (pH 7.4), 5 mM EDTA, 130 mM NaCl, 1% Triton X-100) and protease inhibitor mix protease inhibitor cocktail (protease inhibitor cocktail and phosphatase inhibitor cocktail) were added and left at 4° C. for 30 minutes. After breaking the cells with ultrasound, they were centrifuged at 13,000× g at 4° C. for 30 minutes, and then the supernatant was taken, and the concentration was quantified using a protein quantification kit (Bio-Rad Laboratories, Hercules, CA, USA). 20 ug of the obtained protein was electrophoresis with polyacrylamide gel electrophoresis (SDS-PAGE) followed by electrotransfer to PVDF membrane (Bio-Rad). The membrane was blocked at room temperature for 1 hour with a TBS-T solution (20 mM Tris (pH 7.5), 137 mM NaCl, 0.05% Triton X-100) containing 5% skim milk. Then, after switching to a solution containing the primary antibody, it was reacted at 4° C. The membrane after the reaction was washed three times with TBS-T solution, reacted with a secondary antibody, and then luminesced using an ECL kit and autoradiography. […]

BI-1 (TMBIM6) [2] = assay: TMBIM6-GCaMP3 fluorescence, calcium released through BI-1; type: cell-based; details: HT1080 cells expressing TMBIM6-GCaMP3, BIA 10 μM, over time
BI-1 (TMBIM6) [3] = molecular target: T1, BI-1 (TMBIM6) (Homo sapiens, UniProt P55061); assay: G-CEPIAer ER lumen calcium indicator; type: cell-based; details: HT1080, 10 μM BIA, compared to untreated control cells
T1 construct: endogenous in cells; host or cells: HT1080 cells transfected only with the G-CEPIAer indicator plasmid
T1 sequence (P55061 whole entry): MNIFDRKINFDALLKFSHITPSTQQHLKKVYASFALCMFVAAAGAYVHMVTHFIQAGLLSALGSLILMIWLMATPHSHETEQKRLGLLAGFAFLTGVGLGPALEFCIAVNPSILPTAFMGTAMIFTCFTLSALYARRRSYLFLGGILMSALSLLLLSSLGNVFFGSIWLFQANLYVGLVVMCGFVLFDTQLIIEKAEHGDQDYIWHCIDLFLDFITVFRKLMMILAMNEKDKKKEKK
Procedure: FIG. 74B is a result of treating HT1080 cells with BIA 10 μM and observing the fluorescence intensity of G-CEPIAer designed to measure calcium concentration inside
Since BI-1 regulates mTORC2 activation through ER Ca2+ release, the above results confirmed whether BIA inhibits Ca2+ release from BI-1.
On the other hand, when BIA is treated, calcium inside ER increases because […] in ER inhibits calcium. This was expressed G-CEPIAer, which measures the calcium concentration inside ER, and metamorphed HT1080 cells using CEPIAer plasmid to create stable cells. This transfected cell can be used to detect only free calcium from ER via BI-1 (TMBIM6) based on the calcium channel-like nature of BI-1 (TMBIM6). By confirming the increase in fluorescence, it was possible to confirm the specificity of the BIA (see FIG. 74B).

[4] = system: HT1080 and MDA-MB-231 cells; assay: Cell invasion assay; type: cell-based
Procedure: FIG. 65B is an image of an invasive cell in HT1080 and MDA-MB-231 cells treated with 2.0 μM BIA. The graph on the right quantifies invading cells from BIA-treated cells normalized to control cells (n=3 independent experiments). Data were expressed as mean±SD. **p<0.01, ***p<0.001, two-tailed unpaired t-test. The scale bar represents […].
Cells were moved through the polyethylene terephthalate membrane (BD Biosciences) of the insert for 12 hours, and then fixed, crystal violet staining was performed to measure the degree of invasion.
Cell invasion experiments were performed according to the method of the Invasion Assay Kit (corning, 3458). Put a cell culture insert into the 24-well cell culture plate, DMEM medium with 10% FBS added outside the insert , and no FBS added inside the insert. 2.0 μM BIA was added to HT1080 and MDA-MB-231 and incubated at 37° C. for 12˜24 hours. Removed the medium in the 24-well culture plate and the medium inside the insert Then, a cotton swab was used to remove the remaining cells in the insert. After fixing the insert in 4% formaldehyde solution, stain the cells that penetrate the bottom of the insert with crystal violet solution, wash it with tertiary distilled water, and then at room temperature Dried and dried inserts were observed under a microscope.

[5] = system: human breast cancer cells labeled with DiI dye; assay: Zebrafish tumor model; type: in vivo; details: 2 uM BIA, third day after transplantation
[6] = system: HT1080, PANC-1, Capan-1 and MIA PaCa-2; assay: Cell viability (crystal violet), BIA versus mTOR inhibitors; type: cell-based; details: 10 μM
[7] = system: association between RICTOR and mTOR or between RICTOR and RPL19; assay: Proximity ligation assay in PANC-1 cells; type: cell-based; details: PLA
Description: The graph on the right quantifies the fine, bright points (n=5 independent experiment). The scale bar represents 20 μm. Data were expressed as mean±SD. **p<0.01, Bonferroni's post hoc test after binary ANOVA.

SARS-CoV2 virus = assay: MTT cell viability of Vero E6 cells infected with SARS-CoV2; type: cell-based; details: Vero E6, SARS-CoV2 0.1 MOI, 500 nM, 24 hours after treatment; control DMSO-S 66.52±2.28%; 0.5 µM
Procedure: Vero E6 cells, monkey kidney cell masters, were dispensed at 1×10^4 cells/well per well in 96 well plates and incubated at 37° C., 5% CO2 incubators for 24 hours. SARS-CoV2 to infect Vero E6 cells was S ARS-CoV 43326 distributed from the National Pathogen Resource Bank, and DMEM (2% FBS, 1% antibiotic-antimycotic) medium was dispensed at 100 μL/well to infect 0.1 MOI. For 1 hour The virus was removed after 1 hour of infection in a 37° C., 5% CO2 incubator.
Next, samples prepared so that BIA or analogue compounds were finally 500 nM were dispensed 100 μL/well, including the culture medium, and then treated in a 37° C., 5% CO2 incubator for 24 hours. In the same way, the group treated with 2 μM, 5 μM, or 10 μM of Remdesivir (Rem) was a positive control.
Check the condition of the cells, add 100 μL/well of 0.5 mg/ml MTT solution, react in a 37° C., 5% CO2 incubator for 4 hours, wash out the media, and DMSO to the cells by 100 μL/well After sufficient dissolution, absorbance was measured at 540 nm with a plate reader to evaluate cell viability.
To confirm the possibility of viral prevention and therapeutic effects of BIA and its analogue compounds, 500 nM treatment of BIA analogue at the same time as viral infection, and then MTT assay whether the viability of cells against viral infection is improved after 24 hours. The results confirmed are shown in the graph of FIG. 82.

Nc1ccccc1C(=O)/C=C/c1cccc([N+](=O)[O-])c1 [BIA, 2E-1-2-Aminophenyl-3-3-nitrophenyl-2-propen-1-one]
phosphorylation of AKT ([1]; BIA-treated cells, following loss of BI-1/mTORC2/ribosome binding): complete reduction | AKT serine phosphorylation S473 ([1]; HT1080 cells, 1 or 2 μM): inhibited | phosphorylation of AKT ([1]; MDA-MB-231 cells, 1 or 2 μM): equally inhibited | phosphorylation of AKT ([1]; SKBR3 cells, 1 or 2 μM): equally inhibited | BI-1-GCaMP3 fluorescence intensity (BI-1 (TMBIM6) [2]): decreasing pattern; also recorded: decreased over time | G-CEPIAer fluorescence intensity (ER calcium) (BI-1 (TMBIM6) [3]): increased | cell invasion ([4]; HT1080 fibrosarcoma cells, 12 hours): very pronounced cell invasion inhibition | cell invasion ([4]; MDA-MB-231 and HT1080 cells, 2.0 μM BIA): reduced | movement of tumor cells away from the primary site [5]: remained at the injection site | cell viability compared to OSI-027 and Voxtalisib and other mTOR inhibitors [6]: significantly reduced | association between RICTOR and mTOR or between RICTOR and RPL19 [7]: reduced | cell viability (SARS-CoV2 virus): 77.94±5.51%
